System: Schwann cells
Assay: Gene expression (microarray) in cultured Schwann cells
Type: cell-based, Human
Description: n=8×25 cm^2 culture flasks were set up. Two flasks were harvested on the day of treatment (24 hours after seeding). This represents the Day0 time point. From the remaining flasks, three flasks were treated with Control Medium and three were treated with Culture Medium (CM) containing dextran sulfate to give a final concentration of 0.01 mg/ml. Cells from the treated flasks were collected after 48 hours. Therefore the collected data represent (a) untreated cells (Day0 Controls and Day2 Controls) and (b) cells treated with dextran sulfate for 48 hours (Day2 dextran sulfate treated).
25 cm^2 flasks were coated by adding 2 ml per flask of a solution of 50 μg/ml poly-d-lysine in Hank's balanced salt solution (HBSS) and incubating overnight at 37° C. in the dark. Flasks were washed with cell culture water and air-dried for 30 min in the dark. Flasks were coated by adding 1 ml per flask of a solution of 25 μg/ml laminin in phosphate-buffered saline (PBS) and incubating for 2 hour at 37° C. in the dark. The laminin flasks were washed with PBS three times before plating cells.
Schwann cells growth medium was prepared by adding 10% of fetal bovine serum (FBS) to high-glucose DMEM and pre-warmed to 37° C. Cells were thawed in a 37° C. water bath for no longer than 2 min.
Cells from 12 vials were each gently transferred to a tube containing 10 ml of high-glucose DMEM medium and centrifuged at 400 relative centrifugal field (RCF) for 10 min. Pellet was resuspended in culture medium. The cells from the 12 vials were mixed and distributed equally into the previously coated 25 cm^2 flasks (n=8). Cells were incubated at 37° C. with 5% CO2. Cells were allowed to settle for 24 hours before dextran sulfate treatment.
Dextran sulfate (Tikomed AB, Sweden, WO 2016/076780) was provided at a stock concentration of 20 mg/ml and was kept in a temperature monitored refrigerator at 4° C. A fresh 100× dextran sulfate stock (1.0 mg/ml) was prepared in sterile DMEM-F12. The concentrated drug stock was sterile filtered and added to the respective culture media (19.6 ml CM and 0.4 ml dextran sulfate stock solution). The Control was made using 19.6 ml CM and 0.4 ml of DMEM-F12. Dextran sulfate and CM were added to the respective flasks (5 ml each) to reach the 0.01 mg/ml concentration of dextran sulfate in each dish with a total of 10 ml CM each.
CM was aspirated into a clean and labelled 15 ml Falcon tube. The flasks (without culture medium) were placed into the −80° C. freezer for 30 minutes. The CM in the Falcon tubes were spun at 3000×g for 5 minutes. Supernatant was removed and the small pellet was re-suspended in 2.5 ml Trizol:Water (4:1) solution at room temperature (RT, ˜22° C.).
The frozen flasks were removed one-by one from the freezer and the Trizol-Water from the appropriate tubes was moved to the flask. Flasks were left at RT for 5 minutes before the content was aspirated back into the 15 ml Falcon tube (after washing the bottom of the flask with the solution thoroughly). The flasks were inspected under the microscope to ensure full removal of cells. The collected lysates in the 15 ml Falcon tubes were placed into the −80° C. freezer.
Two aliquots of 1 ml lysate was removed from each sample and 200 μl of chloroform was added to each (0.2 ml of chloroform per 1 ml of TRIzol Reagent used during the cell lysis step) and the tube was shaken vigorously. Samples were stored at RT for 2-3 minutes and subsequently centrifuged at 12,000×g for 15 minutes at 4° C.
The RNA was precipitated from the aqueous phase by adding an equal amount of 100% ethanol. The precipitated RNA was fixed onto a Spin Cartridge, washed twice and dried. The RNA was eluted in 50 μl warm RNase-Free Water. The amount and quality of the purified RNA was measured by Nanodrop. The RNA was stored at −80° C. before transfer to Source Bioscience for Array analysis.
The expression data were downloaded into separate files for each cell line. […]

dextran sulfate
effect on cell adhesion and movement in Schwann cells (0.01 mg/ml, 48 hours): promoted cell detachment and movement | differentially expressed genes (D0 control vs D2 dextran sulfate treated, 0.01 mg/ml, 48 hours): 1244 genes | differentially expressed genes (D2 control vs D2 dextran sulfate treated, 0.01 mg/ml, 48 hours): 700 genes | increase in decorin expression, fold change (Schwann cells, 0.01 mg/ml, 48 hours): 1.242 | genes: abolished nutrient effect (no effect): 21 | genes: total (no effect): 21 | genes: abolished nutrient effect (significant downregulation): 1 | genes: enhanced response to nutrients (significant downregulation): 122 | genes: new effect induced by dextran sulfate (significant downregulation): 352 | genes: not different from control (significant downregulation): 42 | genes: total (significant downregulation): 517 | genes: abolished nutrient effect (significant upregulation): 13 | genes: enhanced response to nutrients (significant upregulation): 441 | genes: new effect induced by dextran sulfate (significant upregulation): 74 | genes: not different from control (significant upregulation): 373 | genes: total (significant upregulation): 901 | genes: abolished nutrient effect (total): 35 | genes: enhanced response to nutrients (total): 563 | genes: new effect induced by dextran sulfate (total): 426 | genes: not different from control (total): 415 | genes: total (total): 1439

Reference: patent US11291684B2, “Treatment of glaucoma” (TX MEDIC AB, priority 2017, dated 2022)
